Assays:
[1] = molecular target: T1, Recombinant human Cbl-b (aa 36-427) (Homo sapiens, UniProt Q13191); experiment: Cbl-b Biochemical Assay (TR-FRET); conditions: 6 nM Cbl-b, 1-2.5 nM Src-Zap70, 0.5 mM ATP; HTRF signal at 520 nm
T1 construct: Recombinant human Cbl-b (aa 36-427) was expressed in E coli; biotin (biotinylated in vitro); made in house; host or cells: E. coli
Procedure: Cbl-b Biochemical Assay (TR-FRET)
Recombinant human Cbl-b (aa 36-427) was expressed in E coli, purified and biotinylated in vitro. The protein was diluted to 12 nM in freshly prepared assay buffer consisting of 50 mM HEPES, pH 7.0, 100 mM NaCl, 5 mM MgCl2, 0.01% Triton-X 100, 0.01% BSA and 1 mM DTT. Recombinant human Src (aa 254-536)-GSSGSS-Zap-70 (aa 281-297) fusion protein was expressed in E coli and purified. Protein was diluted in assay buffer to 2-5 nM and supplemented with ATP to 1 mM. Fluorescein-BODIPY labeled UBED2D(C85K)-Ub was prepared by conjugating ubiquitin (Ub) labeled at its N-terminus with Fluorescein-BODIPY maleimide (ThermoFisher Catalog no B10250) to E coli expressed and purified UBED2D(C85K) [see Dou et al Nature Structural and Molecular Biology 8: 982-987, 2013]. Recombinant human UBE2D2(C85K) was expressed in E coli, purified and ubiquitinated and Bodipy labelled in vitro. Protein was diluted to 200 nM in assay buffer without MgCl2 (or Cisbio PPI buffer). Streptavidin-Terbium was added to 2 nM and EDTA to 10 mM, to provide a binding assay mix. Compounds were dissolved in DMSO and diluted to prepare a ten-point dilution series. 100 nl of each compound concentration was dispensed in duplicate in a 384 well black assay plate using acoustic dispensing. Wells for maximum signal controls received 100 nl of DMSO only and wells for minimum signal controls received 100 nl of a reference inhibitor compound at a final assay concentration of 100 mM to produce 100% inhibition. 5 μl of diluted Cbl-b enzyme was added to all wells of the assay plate and incubated at RT for 30-60 min. The enzyme assay was initiated by addition of 5 μl of Src-Zap/ATP mix to all wells, and the plate incubated at RT for 60 min. The enzyme reaction was terminated and the binding reaction was initiated by adding 10p of binding assay mix to all wells and incubating the plate at RT for 60 min prior to assay read. Final assay conditions consisted of 6 nM Cbl-b, 1-2.5 nM Src-Zap70, 0.5 mM ATP, 1% (v/v) DMSO (enzyme reaction) and 100 nM UBE2D2(C85K)-Ub-FL-BODIPY, 5 mM EDTA, 1 nM Streptavidin-Tb (binding reaction). The HTRF assay signal was measured at 520 nm on an Envision plate reader, with reference signal at 485 or 620 nm. Data was normalized using maximum and minimum assay controls: % Inhibition=100−(100*((maximum control)−unknown)/(maximum control−minimum control)). A 4-parameter dose-response equation was used to fit the normalized dose-response data and derive an IC50 for test compounds.

[2] = system: Recombinant human c-Cbl (aa 47-435); experiment: c-Cbl Biochemical Assay (TR-FRET); conditions: ratio from the Cbl-b and c-Cbl TR-FRET biochemical assays
Procedure: c-Cbl Biochemical Assay (TR-FRET)
Recombinant human c-Cbl (aa 47-435) was expressed in E coli, purified and biotinylated in vitro. The protein was diluted to 12 nM in freshly prepared assay buffer consisting of 50 mM HEPES, pH 7.0, 100 mM NaCl, 5 mM MgCl2, 0.01% Triton-X 100, 0.01% BSA and 1 mM DTT. Recombinant human Src (aa 254-536)-GSSGSS-Zap-70 (aa 281-297) fusion protein was expressed in E coli and purified. Protein was diluted in assay buffer to 5-20 nM and ATP was added to 1 mM. Recombinant human UBE2D2(C85K) was expressed in E coli, purified and ubiquitinated and Bodipy labelled in vitro. Protein was diluted to 200 nM in assay buffer without MgCl2 (or Cisbio PPI buffer). Streptavidin-Terbium was added to 2 nM and EDTA to 10 mM, to provide a binding assay mix. Compounds were dissolved in DMSO and diluted to prepare a ten-point half log dilution series. 100 nl of each compound concentration was dispensed in duplicate in a 384 well black assay plate using acoustic dispensing. Wells for maximum signal controls received 100 nl of DMSO only and wells for minimum controls received 100 nl of a reference inhibitor compound at a final assay concentration of 100 mM to produce 100% inhibition. 5 μl of diluted c-Cbl enzyme was added to all wells of the assay plate and incubated at RT for 30 min. The enzyme assay was initiated by addition of 5 d of Src-Zap/ATP mix to all wells, and the plate incubated at RT for 60-90 min. The enzyme reaction was terminated and the binding reaction was initiated by adding 10p of binding assay mix to all wells and incubating the plate at RT for 60 min prior to assay read. Final assay conditions consisted of 6 nM c-Cbl. 2.5-10 nM Src-Zap70, 0.5 mM ATP. 1% (v/v) DMSO (enzyme reaction) and 100 nM UBE2D2(C85K)-Ub-FL-BODIPY, 5 mM EDTA, 1 nM Streptavidin-Tb (binding reaction). The HTRF assay signal was measured at 520 nm on an Envision plate reader, with reference signal at 485 or 620 nm. Data was normalized using maximum and minimum assay controls: % Inhibition=100−(100*((maximum control)−unknown)/(maximum control−minimum control)). A 4-parameter dose-response equation was used to fit the normalized dose-response data and derive an IC50 for test compounds.

T1 sequence (Q13191 36-427): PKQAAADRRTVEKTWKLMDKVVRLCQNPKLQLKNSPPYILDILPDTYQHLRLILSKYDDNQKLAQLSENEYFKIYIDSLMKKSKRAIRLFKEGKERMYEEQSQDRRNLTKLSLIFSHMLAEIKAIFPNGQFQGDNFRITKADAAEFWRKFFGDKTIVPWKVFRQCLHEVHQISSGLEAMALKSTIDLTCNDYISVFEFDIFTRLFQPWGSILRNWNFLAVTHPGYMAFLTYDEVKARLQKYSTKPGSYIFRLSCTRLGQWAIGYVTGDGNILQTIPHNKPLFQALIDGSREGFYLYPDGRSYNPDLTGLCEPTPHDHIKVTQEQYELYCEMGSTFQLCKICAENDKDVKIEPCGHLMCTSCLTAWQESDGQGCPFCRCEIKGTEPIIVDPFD

SMILES	IC50 [1] [nM]	Cbl-b/c-Cbl Selectivity [2]
C[C@H]1CCCN(Cc2cc(C(F)(F)F)c3oc(-c4cccc([C@H](c5nncn5C)C5CCC5)c4)nc3c2)C1 (single isomer, unassigned) [I-33]	< 200	10
C[C@H]1CCCN(Cc2cc(C(F)(F)F)c3oc(-c4cccc([C@H](c5nncn5C)[C@H]5C[C@@H](C(F)(F)F)C5)c4)nc3c2)C1 (single isomer, unassigned) [I-59]	< 200	19
CCNc1cc(-c2cc(C#N)ccc2-c2nncn2C)cc(-c2nc3cc(CNCC4(C#N)CCCC4)cc(C(F)(F)F)c3o2)n1 [I-4]	200 to 5000	8
CC(C)NCc1cc(C(F)(F)F)c2oc(-c3cccc([C@]4(c5nncn5C)C[C@@H](C)C4)c3)nc2c1 [I-5, Isopropyl[(2-{3-[(1r,3s)-3-methyl-1-(4-methyl-1,2,4-triazol-3-yl)cyclobutyl]phenyl}-7-(trifluoromethyl)-1,3-benzoxazol-5-yl)methyl]amine]	200 to 5000	12
CO[C@H]1CCCN(Cc2cc(C(F)(F)F)c3oc(-c4cccc([C@]5(c6nncn6C)C[C@@H](C)C5)c4)nc3c2)C1 [I-6, 5-{1[(3S)-3-Methoxypiperidin-1-yl]methyl}-2-{3-[(1r,3s)-3-methyl-1-(4-methyl-1,2,4-triazol-3-yl)cyclobutyl]phenyl}-7-(trifluoromethyl)-1,3-benzoxazole]	200 to 5000	10
CO[C@@H]1CCCN(Cc2cc(C(F)(F)F)c3oc(-c4cccc([C@]5(c6nncn6C)C[C@@H](C)C5)c4)nc3c2)C1 [I-7]	200 to 5000	12
Cn1cnnc1[C@]1(c2cccc(-c3nc4cc(CN5CCC6(CC6)C5)cc(C(F)(F)F)c4o3)c2)C[C@H](C)C1 [I-9, 5-{5-Azaspiro[2.4]heptan-5-ylmethyl}-2-{3-[(1r,3s)-3-methyl-1-(4-methyl-1,2,4-triazol-3-yl)cyclobutyl]phenyl}-7-(trifluoromethyl)-1,3-benzoxazole]	< 200	18
CN(Cc1cc(C(F)(F)F)c2oc(-c3cccc([C@]4(c5nncn5C)C[C@@H](C)C4)c3)nc2c1)CC1CCC1 [I-10, 1-Cyclobutyl-N-methyl-N-((2-(3-((1s,3s)-3-methyl-1-(4-methyl-4H-1,2,4-triazol-3-yl)cyclobutyl)phenyl)-7-(trifluoromethyl)benzo[d]oxazol-5-yl)methyl)methanamine]	< 200	10
Cn1cnnc1-c1cc(F)ccc1-c1cc(NCCC#N)nc(-c2nc3cc(CN4CCC5(CC5)C4)cc(C(F)(F)F)c3o2)c1 [I-12, 3-{[6-(5-{5-azaspiro[2.4]heptan-5-ylmethyl}-7-(trifluoromethyl)-1,3-benzoxazol-2-yl)-4-[4-fluoro-2-(4-methyl-1,2,4-triazol-3-yl)phenyl]pyridin-2-yl]amino}propanenitrile]	< 200	7
Cn1cnnc1-c1cc(F)ccc1-c1cc(NCCC#N)nc(-c2nc3cc(CO)cc(C(F)(F)F)c3o2)c1 [I-14]	200 to 5000	7
Cn1cnnc1-c1ccc(C#N)cc1-c1cc(NCCC#N)nc(-c2nc3cc(CNCC(C)(C)O)cc(C(F)(F)F)c3o2)c1 [I-15, 3-{2-[(2-Cyanoethyl)amino]-6-(5-{[(2-hydroxy-2-methylpropyl)amino]methyl}-7-(trifluoromethyl)-1,3-benzoxazol-2-yl)pyridin-4-yl}-4-(4-methyl-1,2,4-triazol-3-yl)benzonitrile]	< 200	7
Cn1cnnc1-c1ccc(C#N)cc1-c1cc(NCCC#N)nc(-c2nc3cc(CN4CCC5(CC5)C4)cc(C(F)(F)F)c3o2)c1 [I-16, 3-[2-(5-{5-azaspiro[2.4]heptan-5-ylmethyl}-7-(trifluoromethyl)-1,3-benzoxazol-2-yl)-6-[(2-cyanoethyl)amino]pyridin-4-yl]-4-(4-methyl-1,2,4-triazol-3-yl)benzonitrile]	200 to 5000	7
Cn1cnnc1-c1ccc(C#N)cc1-c1cc(NCC2(CC#N)CC2)nc(-c2nc3cc(CN[C@@H]4CCC[C@@H]4O)cc(C(F)(F)F)c3o2)c1 [I-27]	< 200	1
Cn1cnnc1-c1cc(F)ccc1-c1cc(NC[C@@H](O)CC#N)nc(-c2nc3cc(CN4CCC5(CC5)C4)cc(C(F)(F)F)c3o2)c1 [I-29]	< 200	14
C[C@H]1CCCN(Cc2cc(C(F)(F)F)c3oc(-c4cccc([C@@H](c5nncn5C)C5CCC5)c4)nc3c2)C1 [I-34]	> 5000	4
C[C@H]1CCCN(Cc2cc(C(F)(F)F)c3oc(-c4cccc(C(c5nncn5C)C5CCC5)c4)nc3c2)C1 (stereo partly shown) [I-48]	< 200	9
CN(Cc1cc(C(F)(F)F)c2oc(-c3cc(-c4cc(C#N)ccc4-c4nncn4C)cc(NCC4(CC#N)CC4)n3)nc2c1)[C@@H]1CCC[C@@H]1O [I-49]	< 200	3
Cn1cnnc1-c1ccc(C#N)cc1-c1cc(NC[C@@H](O)CC#N)nc(-n2cc3c(C(F)(F)F)cc(CN4CCC5(CCC5)C4)cn3c2=O)c1 [I-50, (S)-3-(2-(6-((6-Azaspiro[3.4]octan-6-yl)methyl)-3-oxo-8-(trifluoromethyl)imidazo[1,5-a]pyridin-2(3H)-yl)-6-((3-cyano-2-hydroxypropyl)amino)pyridin-4-yl)-4-(4-methyl-4H-1,2,4-triazol-3-yl)benzonitrile]	< 200	21
C[C@H]1CCCN(Cc2cc(C(F)(F)F)c3oc(-c4cccc(C(c5nncn5C)C5COC5)c4)nc3c2)C1 (stereo partly shown) [I-51]	200 to 5000	7
C[C@H]1CCCN(Cc2cc(C(F)(F)F)c3oc(-c4cccc([C@H](c5nncn5C)C5COC5)c4)nc3c2)C1 [I-52]	200 to 5000	7
C[C@H]1CCCN(Cc2cc(C(F)(F)F)c3oc(-c4cccc([C@@H](c5nncn5C)C5COC5)c4)nc3c2)C1 [I-53]	> 5000	1
Cn1cnnc1[C@@H](c1cccc(-c2nc3cc(CN4CCC5(CCC5)C4)cc(C(F)(F)F)c3o2)c1)[C@H]1C[C@H](C(F)(F)F)C1 [I-61]	> 5000	
